Test results taken from patent publication US8192962B2, “Processes for detecting toxic substances” (Daikin Industries, Ltd., priority 2001, dated 2012).

Tested on: Energy system protein genes
Experiment: DNA chip mRNA expression in yeast, energy system protein genes (Table 4)
Type: cell-based, Saccharomyces cerevisiae S288C
Method in brief: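 Chemical exposure: 2 h, log-phase S. cerevisiae S288C, YPD, 25° C., dose set to inhibit growth without death. Profiling: mRNA labeled by reverse transcription with Cy3- or Cy5-dUTP, hybridized to whole-genome array. Output: fluorescence ratio against untreated culture.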

CCCCCCCCCCCCOS(=O)(=O)[O-].[Na+] [(18), sodium lauryl sulfate]
The level of expressed mRNA in the presence of chemical substance/The level of expressed mRNA in the absence of chemical substance (yeast gene YAL060W): 1.8 | The level of expressed mRNA in the presence of chemical substance/The level of expressed mRNA in the absence of chemical substance (yeast gene YBL058W, cells incubated two hours with the chemical substance): 1.4 | The level of expressed mRNA in the presence of chemical substance/The level of expressed mRNA in the absence of chemical substance (yeast gene YBL099W, cells incubated two hours with the chemical substance): 1.2 | The level of expressed mRNA in the presence of chemical substance/The level of expressed mRNA in the absence of chemical substance (yeast gene YBR001C, cells incubated two hours with the chemical substance): 1.6 | The level of expressed mRNA in the presence of chemical substance/The level of expressed mRNA in the absence of chemical substance (yeast gene YBR185C, cells incubated two hours with the chemical substance): 1.3 | The level of expressed mRNA in the presence of chemical substance/The level of expressed mRNA in the absence of chemical substance (yeast gene YBR221C, cells incubated two hours with the chemical substance): 1.0 | The level of expressed mRNA in the presence of chemical substance/The level of expressed mRNA in the absence of chemical substance (yeast gene YCL040W): 1.7 | The level of expressed mRNA in the presence of chemical substance/The level of expressed mRNA in the absence of chemical substance (yeast gene YCR012W): 1.3 | The level of expressed mRNA in the presence of chemical substance/The level of expressed mRNA in the absence of chemical substance (yeast gene YCR046C, cells incubated two hours with the chemical substance): 1.0 | The level of expressed mRNA in the presence of chemical substance/The level of expressed mRNA in the absence of chemical substance (yeast gene YCR105W, cells incubated two hours with the chemical substance): 1.1 | The level of expressed mRNA in the presence of chemical substance/The level of expressed mRNA in the absence of chemical substance (yeast gene YDL021W): 3.2 | The level of expressed mRNA in the presence of chemical substance/The level of expressed mRNA in the absence of chemical substance (yeast gene YDL067C, cells incubated two hours with the chemical substance): 1.7 | The level of expressed mRNA in the presence of chemical substance/The level of expressed mRNA in the absence of chemical substance (yeast gene YDL078C, cells incubated two hours with the chemical substance): 2.0 | The level of expressed mRNA in the presence of chemical substance/The level of expressed mRNA in the absence of chemical substance (yeast gene YDL107W, cells incubated two hours with the chemical substance): 1.5 | The level of expressed mRNA in the presence of chemical substance/The level of expressed mRNA in the absence of chemical substance (yeast gene YDL174C): 4.0 | The level of expressed mRNA in the presence of chemical substance/The level of expressed mRNA in the absence of chemical substance (yeast gene YDL181W, cells incubated two hours with the chemical substance): 1.4 | The level of expressed mRNA in the presence of chemical substance/The level of expressed mRNA in the absence of chemical substance (yeast gene YDR001C): 1.6 | The level of expressed mRNA in the presence of chemical substance/The level of expressed mRNA in the absence of chemical substance (yeast gene YDR050C, cells incubated two hours with the chemical substance): 2.3 | The level of expressed mRNA in the presence of chemical substance/The level of expressed mRNA in the absence of chemical substance (yeast gene YDR079W, cells incubated two hours with the chemical substance): 1.3 | The level of expressed mRNA in the presence of chemical substance/The level of expressed mRNA in the absence of chemical substance (yeast gene YDR178W, cells incubated two hours with the chemical substance): 2.3 | The level of expressed mRNA in the presence of chemical substance/The level of expressed mRNA in the absence of chemical substance (yeast gene YDR231C): 1.3 | The level of expressed mRNA in the presence of chemical substance/The level of expressed mRNA in the absence of chemical substance (yeast gene YDR298C, cells incubated two hours with the chemical substance): 1.6 | The level of expressed mRNA in the presence of chemical substance/The level of expressed mRNA in the absence of chemical substance (yeast gene YDR377W, cells incubated two hours with the chemical substance): 2.5 | The level of expressed mRNA in the presence of chemical substance/The level of expressed mRNA in the absence of chemical substance (yeast gene YDR529C, cells incubated two hours with the chemical substance): 2.3 | The level of expressed mRNA in the presence of chemical substance/The level of expressed mRNA in the absence of chemical substance (yeast gene YEL024W, cells incubated two hours with the chemical substance): 1.5 | The level of expressed mRNA in the presence of chemical substance/The level of expressed mRNA in the absence of chemical substance (yeast gene YEL039C, cells incubated two hours with the chemical substance): 1.1 | The level of expressed mRNA in the presence of chemical substance/The level of expressed mRNA in the absence of chemical substance (yeast gene YER178W): 0.9 | The level of expressed mRNA in the presence of chemical substance/The level of expressed mRNA in the absence of chemical substance (yeast gene YFL057C): 1.3 | The level of expressed mRNA in the presence of chemical substance/The level of expressed mRNA in the absence of chemical substance (yeast gene YFR053C): 2.2 | The level of expressed mRNA in the presence of chemical substance/The level of expressed mRNA in the absence of chemical substance (yeast gene YGL018C, cells incubated two hours with the chemical substance): 1.0 | The level of expressed mRNA in the presence of chemical substance/The level of expressed mRNA in the absence of chemical substance (yeast gene YGL062W): 0.9 | The level of expressed mRNA in the presence of chemical substance/The level of expressed mRNA in the absence of chemical substance (yeast gene YGL187C, cells incubated two hours with the chemical substance): 2.4 | The level of expressed mRNA in the presence of chemical substance/The level of expressed mRNA in the absence of chemical substance (yeast gene YGL191W, cells incubated two hours with the chemical substance): 1.7 | The level of expressed mRNA in the presence of chemical substance/The level of expressed mRNA in the absence of chemical substance (yeast gene YGL205W, cells incubated two hours with the chemical substance): 9.1 | The level of expressed mRNA in the presence of chemical substance/The level of expressed mRNA in the absence of chemical substance (yeast gene YGL256W, cells incubated two hours with the chemical substance): 0.8 | The level of expressed mRNA in the presence of chemical substance/The level of expressed mRNA in the absence of chemical substance (yeast gene YGR008C): 4.2 | The level of expressed mRNA in the presence of chemical substance/The level of expressed mRNA in the absence of chemical substance (yeast gene YGR043C): 4.8 | The level of expressed mRNA in the presence of chemical substance/The level of expressed mRNA in the absence of chemical substance (yeast gene YGR062C, cells incubated two hours with the chemical substance, 25° C., YPD medium): 1.1 | The level of expressed mRNA in the presence of chemical substance/The level of expressed mRNA in the absence of chemical substance (yeast gene YGR087C, cells incubated two hours with the chemical substance): 0.6 | The level of expressed mRNA in the presence of chemical substance/The level of expressed mRNA in the absence of chemical substance (yeast gene YGR174C, cells incubated two hours with the chemical substance): 2.3 | The level of expressed mRNA in the presence of chemical substance/The level of expressed mRNA in the absence of chemical substance (yeast gene YGR192C): 1.3 | The level of expressed mRNA in the presence of chemical substance/The level of expressed mRNA in the absence of chemical substance (yeast gene YGR244C): 3.1 | The level of expressed mRNA in the presence of chemical substance/The level of expressed mRNA in the absence of chemical substance (yeast gene YGR254W): 1.2 | The level of expressed mRNA in the presence of chemical substance/The level of expressed mRNA in the absence of chemical substance (yeast gene YHR179W): 1.6 | The level of expressed mRNA in the presence of chemical substance/The level of expressed mRNA in the absence of chemical substance (yeast gene YIL160C): 3.0 | The level of expressed mRNA in the presence of chemical substance/The level of expressed mRNA in the absence of chemical substance (yeast gene YIR031C, cells incubated two hours with the chemical substance): 0.8 | The level of expressed mRNA in the presence of chemical substance/The level of expressed mRNA in the absence of chemical substance (yeast gene YJL052W): 1.9 | The level of expressed mRNA in the presence of chemical substance/The level of expressed mRNA in the absence of chemical substance (yeast gene YJL121C, cells incubated two hours with the chemical substance): 1.0 | The level of expressed mRNA in the presence of chemical substance/The level of expressed mRNA in the absence of chemical substance (yeast gene YJL166W, cells incubated two hours with the chemical substance): 4.0 | The level of expressed mRNA in the presence of chemical substance/The level of expressed mRNA in the absence of chemical substance (yeast gene YJL216C, cells incubated two hours with the chemical substance): 2.0
